Reference: patent publication US20240366813A1, “PEPTIDE-UREA DERIVATIVE, PHARMACEUTICAL COMPOSITION CONTAINING SAME AND APPLICATION THEREOF” (Bivision Pharmaceuticals, Inc., priority 0001, published 2024)
Where “and” joins values, the source holds several entries; their conditions need not be identical. Equal values may be shown once.

Assays:
[1] = In vivo distribution in healthy SD rats; conditions: intravenous, FIG. 7
Protocol: In vivo distribution in healthy rats: Radiolabeled E series compounds were injected into the tail vein of SD rats aged 6-9 weeks (Hangzhou Ziyuan Testal Animal Technology Co., Ltd.) (about 7.4 MBq/mouse, specific activity: 84200.14 kBq/μg). At different time points (0.25, 0.5, 1, 2, 4, 6, 24, 48, 72 h) after administration of labeled compounds to SD rats, the animals were euthanized by carbon dioxide inhalation, and the blood and […] viscera (blood, liver, spleen, lungs, heart, muscle, pancreas, testes) of the animals were collected after euthanasia.
(§1) Blood was collected through the abdominal aorta, and immediately after collection, 100 μL was quantified into a designated centrifuge tube (weighed). After the viscera were collected, they were washed twice with deionized water, wiped dry, put into a pre-weighed test tube, and weighed again. The weight of samples was calculated. The sample was measured on the day of collection. All blood samples and tissue samples were measured for radioactive counts using a gamma counter.

[2] = In vivo metabolism test of 177Lu-labeled complex in SD rats (plasma radioactive counts); conditions: for plasma radioactive counts: individual rat, 100 μL plasma; for plasma radioactive counts, MEAN: mean of rats
Protocol: Eighteen SD rats (Hangzhou Ziyuan Experimental Animal Technology Co., Ltd.), male, weighing 180-200 g, were randomly divided into 6 groups, 3 rats in each group. […] of the labeled precursor compound was injected into the tail vein of each mouse. 250 μL of orbital blood was collected into anticoagulant tubes at 5 min, 0.5 h, 1 h, 2 h, 4 h, 8 h and 24 h after administration. Blood was centrifuged at 3000 rpm for 10 min, and 100 μL of plasma was taken into scintillation vials. 2 mL of scintillation fluid was added to each scintillation vial and shaken well. A liquid scintillation counter was used to detect radioactive counts in each vial.

22rv1 xenograft tumor = test: Pharmacodynamic study in 22rv1 mouse xenograft tumor model (effect example 11); assay type: in vivo, mice; conditions: over the two dose groups
[3] = tested on: LNCaP PSMA-positive tumors; test: SPECT imaging in mice carrying LNCaP PSMA-positive tumors; assay type: in vivo; conditions: 100 μCi tail vein
Protocol: 100 μCi of ^177Lu-labeled ^177Lu-E3 and ^177Lu-PSMA-617 were injected into mice carrying LNCaP PSMA-positive tumors (Jiangsu Huajing Molecular Imaging and Drug Research Institute Co., Ltd.) through the tail vein respectively. Mice were anesthetized with 2% isoflurane/98% oxygen for SPECT image contrast study.

22rv1 tumor = test: Tissue distribution in PSMA-positive 22rv1 tumor-bearing mice; assay type: in vivo; conditions: tail vein, FIG. 8
Protocol: Tissue distribution in PSMA-positive tumor-bearing mice: About 6-9 weeks old (Nod scid) mice (Jiangsu Huajing Molecular Imaging and Drug Research Institute Co., Ltd.) were inoculated subcutaneously with 5×10^6 cells of 22rv1 (in 50% Matrigel, Corning) on the right shoulder of animals. When the tumor grew to a size of about 150-350 mm^3, ^177Lu-E3 radiolabeled compound was injected into the tail vein of the mouse (about 7.4 MBq/mouse, specific activity: 22423.82 KBq/μg). The animals were euthanized by carbon dioxide inhalation at 0.25, 0.5, 1, 6, 24, 72, 144, and 168 hours respectively after administration. Blood and viscera (blood, liver, spleen, lung, heart, muscle, pancreas, testis, tumor) were collected from animals after euthanasia.
as §1, with “deionized water and” for “deionized water,”, “wiped dry. The viscera were” for “wiped dry,”, “of the sample” for “of samples”, “gamma counter, and the results are shown in FIG. 8.” for “gamma counter.”

[4] = tested on: PSMA-positive cells LNCap; test: Uptake of labeled compounds by PSMA-positive cells LNCap; assay type: cell-based; conditions: 37° C., 0.5 h
Protocol: LNCap cells (Shangcheng Beina Chuanglian Biotechnology Co., Ltd., Industrial Park, Chengguan Town, Shangcheng County, Xinyang City, Henan Province) were revived and passaged for expansion. After the cells were expanded to a sufficient amount, cells were seeded in a 24-well plate at a density of 1×10^4 cells/well. Uptake tests were performed when cells grew to 80%-90% confluence.
The above labeled compounds ^177Lu-E1, ^177Lu-E2, ^177Lu-E3, ^177Lu-E5, ^177Lu-E9, ^177Lu-E14 and ^177Lu-PSMA-617 were diluted with serum-free medium into 10000, 1000, 100, 10, 1, 0.1 and 0 nM. 1 mL of the diluted solution was added to a 24-well plate, and incubated at 37° C. for 0.5 h. The supernatant was discarded and the cells were washed 3 times with PBS. 250 μL of 1M NaOH solution was added to each well. The cells were pipetted until they were completely dissolved, and transferred to a scintillation vial. 250 μL of NaOH solution was added to each well again to wash the bottom of the well and transferred to a scintillation vial. 2 mL of scintillation fluid was added to each scintillation vial and shaken well. A liquid scintillation counter was used to detect radioactive counts in each vial.

[5] = 5 min after tail vein injection
[6] = 0.5 h after tail vein injection

O=C([O-])CN1CCN(CC(=O)[O-])CCN(CC(=O)N2CCc3cc(C(=O)NC(Cc4ccc5ccccc5c4)C(=O)NCCCCC(NC(=O)NC(CCC(=O)O)C(=O)O)C(=O)O)ccc3C2)CCN(CC(=O)[O-])CC1.[177Lu+3] (stereo not shown) [^177Lu-E3]
uptake in each organ [1]: low | plasma radioactive counts [2, 5]: 26791 cpm and 31372 cpm and 27797 cpm | plasma radioactive counts [2, 6]: 10681 cpm and 8675 cpm and 8026 cpm | plasma radioactive counts ([2]; 1 h after tail vein injection): 3448 cpm and 3676 cpm and 2916 cpm | plasma radioactive counts ([2]; 2 h after tail vein injection): 539 cpm and 559 cpm and 458 cpm | plasma radioactive counts ([2]; 4 h after tail vein injection): 178 cpm and 135 cpm and 181 cpm | plasma radioactive counts ([2]; 8 h after tail vein injection): 154 cpm and 191 cpm and 184 cpm | plasma radioactive counts ([2]; 24 h after tail vein injection): 191 cpm and 175 cpm and 179 cpm | plasma radioactive counts, MEAN [2, 5]: 28653 cpm | plasma radioactive counts, MEAN [2, 6]: 9127 cpm | plasma radioactive counts, MEAN ([2]; 1 h after tail vein injection): 3347 cpm | plasma radioactive counts, MEAN ([2]; 2 h after tail vein injection): 519 cpm | plasma radioactive counts, MEAN ([2]; 4 h after tail vein injection): 165 cpm | plasma radioactive counts, MEAN ([2]; 8 h after tail vein injection): 176 cpm | plasma radioactive counts, MEAN ([2]; 24 h after tail vein injection): 182 cpm | tumor growth inhibition rate (22rv1 xenograft tumor): 71-80% | accumulation in PSMA-positive tumors compared with reference animals injected with ^177Lu-PSMA-617 [3]: significantly higher | route of excretion [3]: mainly excreted through the kidney | Heart, Averaged ([3]; 1 h): 6.44 % ID/cc | Kidney, Averaged ([3]; 1 h): 165.36 % ID/cc | Liver, Averaged ([3]; 1 h): 3.08 % ID/cc | Lung, Averaged ([3]; 1 h): 5.52 % ID/cc | Tumor, Averaged ([3]; 1 h): 23.56 % ID/cc | Heart, Averaged ([3]; 4 h): 2.41 % ID/cc | Kidney, Averaged ([3]; 4 h): 129.55 % ID/cc | Liver, Averaged ([3]; 4 h): 2.03 % ID/cc | Lung, Averaged ([3]; 4 h): 3.26 % ID/cc | Tumor, Averaged ([3]; 4 h): 28.79 % ID/cc | Heart, Averaged ([3]; 8 h): 1.39 % ID/cc | Kidney, Averaged ([3]; 8 h): 87.74 % ID/cc | Liver, Averaged ([3]; 8 h): 2.54 % ID/cc | Lung, Averaged ([3]; 8 h): 1.82 % ID/cc | Tumor, Averaged ([3]; 8 h): 31.79 % ID/cc | Heart, Averaged ([3]; 1 d): 3.23 % ID/cc | Kidney, Averaged ([3]; 1 d): 8.03 % ID/cc | Liver, Averaged ([3]; 1 d): 1.94 % ID/cc | Lung, Averaged ([3]; 1 d): 2.71 % ID/cc | Tumor, Averaged ([3]; 1 d): 34.01 % ID/cc | Heart, Averaged ([3]; 3 d): 2.03 % ID/cc | Kidney, Averaged ([3]; 3 d): 3.74 % ID/cc | Liver, Averaged ([3]; 3 d): 1.80 % ID/cc | Lung, Averaged ([3]; 3 d): 2.68 % ID/cc | Tumor, Averaged ([3]; 3 d): 32.84 % ID/cc | drug concentration in the tumor after 7 days (22rv1 tumor): high drug concentration | time of highest uptake in the tumor after administration (22rv1 tumor): 2 h | uptake in non-target organs (22rv1 tumor): always low | uptake by LNCap cells ([4]; 0.1 nM): 48 cpm | uptake by LNCap cells ([4]; 1 nM): 95 cpm | uptake by LNCap cells ([4]; 10 nM): 346 cpm | uptake by LNCap cells ([4]; 100 nM): 555 cpm | uptake by LNCap cells ([4]; 1000 nM): 903 cpm | uptake by LNCap cells ([4]; 10000 nM): 3150 cpm
